Experimental data taken from US6525001B1, “Substituted pyrimidine and pyridine herbicides” (Mid-American Commercialization Corporation, priority 1997, dated 2003).

Experiments:
Format in all cases: in vivo
Parameters in all cases: key: 0 is no effect; 10 is complete control
[1] = system: bamyardgrass (Echinochloa crus-galli); experiment: Test B flood test
Outline: (§1)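 Each value is a visual injury score relative to controls, with 10 meaning complete control and 0 no effect. Evaluation took place twelve to sixteen days after the 2-leaf-stage plants were treated and kept in the greenhouse.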

[2] = system: duck salad (Heteranthera limosa); experiment: Test B flood test
Outline: as §1

[3] = system: rice (Oryza sativa); experiment: Test B flood test
Outline: as §1

[4] = system: smallflower flatsedge (Cyperus difformis); experiment: Test B flood test
Outline: as §1

[5] = system: wild oat (Avena fatua); experiment: Test B pre-/postemergence
Outline: (§2)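 Response scores run from 0, meaning no effect, to 10, meaning complete control, assigned by eye relative to controls twelve to sixteen days after spraying. Treatment was both preemergence on planted seed and postemergence on plants at the 1- to 4-leaf stage.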

[6] = system: pigweed (Amaranthus retroflexus); experiment: Test B pre-/postemergence
Outline: as §2

[7] = system: giant foxtail (Setaria faberii); experiment: Test B pre-/postemergence
Outline: as §2

[8] = system: cocklebur (Xanthium strumarium); experiment: Test B pre-/postemergence; details: for Cocklebur plant response rating: Preemergence
Outline: as §2

[9] = system: broadleaf signalgrass (Brachiaria decumbens); experiment: Test B pre-/postemergence; details: for B. signalgrass plant response rating: Preemergence
Outline: as §2

[10] = system: soybean (Glycine max); experiment: Test B pre-/postemergence
Outline: as §2

[11] = system: bedstraw (Galium aparine); experiment: Test B pre-/postemergence; details: for Bedstraw plant response rating: Preemergence
Outline: as §2

[12] = system: corn (Zea mays); experiment: Test B pre-/postemergence; details: for Corn plant response rating: Preemergence
Outline: as §2

[13] = system: crabgrass (Digitaria sanguinalis); experiment: Test B pre-/postemergence; details: for Crabgrass plant response rating: Preemergence
Outline: as §2

[14] = system: momingglory (Ipomoea hederacea); experiment: Test B pre-/postemergence
Outline: as §2

[15] = system: wheat (Triticum aestivum); experiment: Test B pre-/postemergence
Outline: as §2

[16] = system: purple nutsedge (Cyperus rotundus); experiment: Test B pre-/postemergence
Outline: as §2

[17] = system: blackgrass (Alopecurus myosuroides); experiment: Test B pre-/postemergence; details: for Blackgrass plant response rating: Preemergence
Outline: as §2

[18] = system: sugar beet (Beta vulgaris); experiment: Test B pre-/postemergence
Outline: as §2

[19] = system: rape (Brassica napus); experiment: Test B pre-/postemergence
Outline: as §2

[20] = system: velvetleaf (Abutilon theophrasti); experiment: Test B pre-/postemergence
Outline: as §2

[21] = Rate 62 g/ha, Postemergence (flood test)
[22] = Rate 125 g/ha, Postemergence, flood test
[23] = Rate 250 g/ha, Postemergence (flood test species)
[24] = Rate 125 g/ha, Postemergence section (flood test species)
[25] = Rate 250 g/ha, Postemergence (so in the source)

`Cc1cnc(-c2ccccc2F)nc1Cc1cccc(C#N)c1` [Compound 37] was tested, and the “Plant response rating, Barnyardgrass” value [1, 21] was 0, the “Plant response rating, Barnyardgrass” value [1, 22] was 0 and the “Plant response rating, Barnyardgrass” value [1, 23] was 0. The “Plant response rating, Ducksalad” value [2, 21] was 0, the “Plant response rating, Ducksalad” value [2, 22] was 0 and the “Plant response rating, Ducksalad” value [2, 23] was 0. The “Plant response rating, Rice” value [3, 21] was 0, the “Rice plant response rating” value [3, 24] was 0 and the “Plant response rating, Rice” value [3, 23] was 0. For the same molecule, the “Plant response rating, S. Flatsedge” value [4, 21] was 0, the “S. Flatsedge plant response rating” value [4, 24] was 0 and the “Plant response rating, S. Flatsedge” value [4, 23] was 0. For the same molecule, the “Wild oats plant response rating” value ([5]; Rate 62 g/ha, Postemergence) was 0, the “Wild oats plant response rating” value ([5]; Rate 62 g/ha, Preemergence) was 0 and the “Wild oats plant response rating” value ([5]; Rate 125 g/ha, Postemergence) was 0. For the same molecule, the “Plant response rating, Wild oats” value ([5]; Rate 125 g/ha, Preemergence) was 0, the “Plant response rating, Wild oats” value ([5]; Rate 250 g/ha, Postemergence) was 0 and the “Plant response rating, Wild oats” value [5, 25] was 0. The “Plant response rating, Redroot pigweed” value ([6]; Rate 62 g/ha, Postemergence) was 1, the “Redroot pigweed plant response rating” value ([6]; Rate 62 g/ha, Preemergence) was 0 and the “Redroot pigweed plant response rating” value ([6]; Rate 125 g/ha, Postemergence) was 1. For the same molecule, the “Redroot pigweed plant response rating” value ([6]; Rate 125 g/ha, Preemergence) was 0, the “Plant response rating, Redroot pigweed” value ([6]; Rate 250 g/ha, Postemergence) was 7 and the “Plant response rating, Redroot pigweed” value [6, 25] was 0. The “Plant response rating, Giant foxtail” value ([7]; Rate 62 g/ha, Postemergence) was 0, the “Giant foxtail plant response rating” value ([7]; Rate 62 g/ha, Preemergence) was 0 and the “Giant foxtail plant response rating” value ([7]; Rate 125 g/ha, Postemergence) was 0. The “Giant foxtail plant response rating” value ([7]; Rate 125 g/ha, Preemergence) was 0, the “Plant response rating, Giant foxtail” value ([7]; Rate 250 g/ha, Postemergence) was 1 and the “Plant response rating, Giant foxtail” value [7, 25] was 0. For the same molecule, the “Plant response rating, Cocklebur” value ([8]; Rate 62 g/ha, Postemergence) was 1, the “Cocklebur plant response rating” value ([8]; Rate 62 g/ha) was 0 and the “Plant response rating, Cocklebur” value ([8]; Rate 125 g/ha, Postemergence) was 2. For the same molecule, the “Cocklebur plant response rating” value ([8]; Rate 125 g/ha) was 0, the “Plant response rating, Cocklebur” value ([8]; Rate 250 g/ha, Postemergence) was 3 and the “Plant response rating, Cocklebur” value [8, 25] was 0. The “Plant response rating, B. signalgrass” value ([9]; Rate 62 g/ha, Postemergence) was 0, the “B. signalgrass plant response rating” value ([9]; Rate 62 g/ha) was 0 and the “Plant response rating, B. signalgrass” value ([9]; Rate 125 g/ha, Postemergence) was 0. The “B. signalgrass plant response rating” value ([9]; Rate 125 g/ha) was 0, the “Plant response rating, B. signalgrass” value ([9]; Rate 250 g/ha, Postemergence) was 0 and the “Plant response rating, B. signalgrass” value ([9]; Rate 250 g/ha, Postemergence as printed in head r139 (second section for compounds 26-50)) was 0. For the same molecule, the “Plant response rating, Soybean” value ([10]; Rate 62 g/ha, Postemergence) was 0, the “Soybean plant response rating” value ([10]; Rate 62 g/ha, Preemergence) was 0 and the “Soybean plant response rating” value ([10]; Rate 125 g/ha, Postemergence) was 0. The “Plant response rating, Soybean” value ([10]; Rate 125 g/ha, Preemergence) was 0, the “Plant response rating, Soybean” value ([10]; Rate 250 g/ha, Postemergence) was 0 and the “Plant response rating, Soybean” value [10, 25] was 0. The “Plant response rating, Bedstraw” value ([11]; Rate 62 g/ha, Postemergence) was 1, the “Bedstraw plant response rating” value ([11]; Rate 62 g/ha) was 0 and the “Plant response rating, Bedstraw” value ([11]; Rate 125 g/ha, Postemergence) was 1. For the same molecule, the “Bedstraw plant response rating” value ([11]; Rate 125 g/ha) was 0, the “Plant response rating, Bedstraw” value [11, 25] was 0 and the “Plant response rating, Corn” value ([12]; Rate 62 g/ha, Postemergence) was 1. For the same molecule, the “Corn plant response rating” value ([12]; Rate 62 g/ha) was 0, the “Plant response rating, Corn” value ([12]; Rate 125 g/ha, Postemergence) was 1 and the “Corn plant response rating” value ([12]; Rate 125 g/ha) was 0. For the same molecule, the “Plant response rating, Corn” value ([12]; Rate 250 g/ha, Postemergence) was 1, the “Plant response rating, Corn” value [12, 25] was 0 and the “Plant response rating, Crabgrass” value ([13]; Rate 62 g/ha, Postemergence) was 0. For the same molecule, the “Crabgrass plant response rating” value ([13]; Rate 62 g/ha) was 0, the “Plant response rating, Crabgrass” value ([13]; Rate 125 g/ha, Postemergence) was 0 and the “Crabgrass plant response rating” value ([13]; Rate 125 g/ha) was 0. The “Plant response rating, Crabgrass” value ([13]; Rate 250 g/ha, Postemergence) was 1, the “Plant response rating, Crabgrass” value [13, 25] was 0 and the “Plant response rating, Morningglory” value ([14]; Rate 62 g/ha, Postemergence) was 1. The “Morningglory plant response rating” value ([14]; Rate 62 g/ha, Preemergence) was 0, the “Morningglory plant response rating” value ([14]; Rate 125 g/ha, Postemergence) was 1 and the “Morningglory plant response rating” value ([14]; Rate 125 g/ha, Preemergence) was 0. The “Plant response rating, Morningglory” value ([14]; Rate 250 g/ha, Postemergence) was 1, the “Plant response rating, Morningglory” value [14, 25] was 0 and the “Wheat plant response rating” value ([15]; Rate 62 g/ha, Postemergence) was 0. The “Wheat plant response rating” value ([15]; Rate 62 g/ha, Preemergence) was 0, the “Wheat plant response rating” value ([15]; Rate 125 g/ha, Postemergence) was 0 and the “Plant response rating, Wheat” value ([15]; Rate 125 g/ha, Preemergence) was 0. The “Plant response rating, Wheat” value ([15]; Rate 250 g/ha, Postemergence) was 0, the “Plant response rating, Wheat” value [15, 25] was 0 and the “Plant response rating, Nutsedge” value ([16]; Rate 62 g/ha, Postemergence) was 0. For the same molecule, the “Nutsedge plant response rating” value ([16]; Rate 62 g/ha, Preemergence) was 0, the “Nutsedge plant response rating” value ([16]; Rate 125 g/ha, Postemergence) was 0 and the “Nutsedge plant response rating” value ([16]; Rate 125 g/ha, Preemergence) was 0. The “Plant response rating, Nutsedge” value ([16]; Rate 250 g/ha, Postemergence) was 0, the “Plant response rating, Nutsedge” value [16, 25] was 0 and the “Plant response rating, Blackgrass” value ([17]; Rate 62 g/ha, Postemergence) was 0. For the same molecule, the “Blackgrass plant response rating” value ([17]; Rate 62 g/ha) was 0, the “Plant response rating, Blackgrass” value ([17]; Rate 125 g/ha, Postemergence) was 0 and the “Blackgrass plant response rating” value ([17]; Rate 125 g/ha) was 0. The “Plant response rating, Blackgrass” value ([17]; Rate 250 g/ha, Postemergence) was 0, the “Plant response rating, Blackgrass” value [17, 25] was 0 and the “Plant response rating, Sugarbeets” value ([18]; Rate 62 g/ha, Postemergence) was 1. For the same molecule, the “Sugarbeets plant response rating” value ([18]; Rate 62 g/ha, Preemergence) was 0, the “Sugarbeets plant response rating” value ([18]; Rate 125 g/ha, Postemergence) was 5 and the “Plant response rating, Sugarbeets” value ([18]; Rate 125 g/ha, Preemergence) was 0. The “Plant response rating, Sugarbeets” value ([18]; Rate 250 g/ha, Postemergence) was 5, the “Plant response rating, Sugarbeets” value [18, 25] was 0 and the “Plant response rating, Rape” value ([19]; Rate 62 g/ha, Postemergence) was 1. For the same molecule, the “Rape plant response rating” value ([19]; Rate 62 g/ha, Preemergence) was 0, the “Rape plant response rating” value ([19]; Rate 125 g/ha, Postemergence) was 3 and the “Rape plant response rating” value ([19]; Rate 125 g/ha, Preemergence) was 0. The “Plant response rating, Rape” value ([19]; Rate 250 g/ha, Postemergence) was 4, the “Plant response rating, Rape” value [19, 25] was 0 and the “Plant response rating, Velvetleaf” value ([20]; Rate 62 g/ha, Postemergence) was 0. The “Velvetleaf plant response rating” value ([20]; Rate 62 g/ha, Preemergence) was 0, the “Velvetleaf plant response rating” value ([20]; Rate 125 g/ha, Postemergence) was 0 and the “Plant response rating, Velvetleaf” value ([20]; Rate 125 g/ha, Preemergence) was 0. For the same molecule, the “Plant response rating, Velvetleaf” value ([20]; Rate 250 g/ha, Postemergence) was 1 and the “Plant response rating, Velvetleaf” value [20, 25] was 0.
